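How tested: cells in 96-well plates exposed to compound for 48 hours at five concentrations. At the TGI there is no net growth.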

The test system of one assay is HT29 colon. Briefly: NCI tumour cell line growth inhibition, 48 h.
As for `Cc1cc2c3c(nc4ccccc42)C(=O)c2ccccc2-c3n1`, the TGI came out at 60.2 µM.
The compound `CCOC(=O)c1nc2c(nc1C(=O)OCC)C(=O)c1ccccc1C2=O` showed a TGI of 9.06 µM.
On to `C=CCSc1nnc2cc(CN3CCCC3)c(-c3ccc(Cl)cc3)nn12`, for which the TGI is 32.5 µM.
`Cc1cn(C2CC(O)C(CO)O2)c(=O)[nH]c1=O` (stereo not given) returned a TGI of more than 5000 µM.
Compound `O=c1[nH]c(Nc2nc3ccccc3[nH]2)nc(O)c1-c1ccccc1` returned a TGI of more than 100 µM.
As for `CCOC(=O)c1cn2c(nc1=O)N[C@H]1CCCC[C@@H]12`, the TGI was more than 100 µM.
`CC1=NS(=O)(=O)c2ccccc2N1` showed a TGI of more than 100 µM.
In turn, `O=[N+]([O-])c1ccc(Oc2c(Cl)cc(S(=O)(=O)/N=C(\NO)Nc3ccc(Cl)cc3)cc2Cl)cc1` came in with a TGI of 27.9 µM.
On to `COP(=O)(/C=C/c1cc(C(=O)OCc2ccccc2)n(S(=O)(=O)c2ccccc2)c1)OC`, for which the TGI was more than 100 µM.
With `CSC(=S)N/N=C(\C)c1ccc(S(=O)(=O)N(C)c2ccccc2)cc1`, the TGI was more than 100 µM.

A further assay concerns CAKI-1 renal. Briefly: NCI tumour cell line growth inhibition, 48 h.
Compound `Cc1cc2c3c(nc4ccccc42)C(=O)c2ccccc2-c3n1` had a TGI of 60.7 µM.
For `CCOC(=O)c1nc2c(nc1C(=O)OCC)C(=O)c1ccccc1C2=O`, the TGI came to 3.26 µM.
For the compound `C=CCSc1nnc2cc(CN3CCCC3)c(-c3ccc(Cl)cc3)nn12`, the TGI was 77.5 µM.
In turn, `Cc1cn(C2CC(O)C(CO)O2)c(=O)[nH]c1=O` (stereo not given) returned a TGI of 4450 µM.
`O=c1[nH]c(Nc2nc3ccccc3[nH]2)nc(O)c1-c1ccccc1` showed a TGI of more than 100 µM.
The compound `CCOC(=O)c1cn2c(nc1=O)N[C@H]1CCCC[C@@H]12` had a TGI of more than 100 µM.
`CC1=NS(=O)(=O)c2ccccc2N1`: the TGI was more than 100 µM.
For `O=[N+]([O-])c1ccc(Oc2c(Cl)cc(S(=O)(=O)/N=C(\NO)Nc3ccc(Cl)cc3)cc2Cl)cc1`, the TGI is 18.9 µM.
On the same count and under the same terms, the value for `COP(=O)(/C=C/c1cc(C(=O)OCc2ccccc2)n(S(=O)(=O)c2ccccc2)c1)OC` was more than 100 µM.
Compound `CSC(=S)N/N=C(\C)c1ccc(S(=O)(=O)N(C)c2ccccc2)cc1` showed a TGI of more than 100 µM.

The subject of a further assay is UACC-62 melanoma. As to the kind of experiment: NCI tumour cell line growth inhibition, 48 h.
As to `Cc1cc2c3c(nc4ccccc42)C(=O)c2ccccc2-c3n1`, the TGI came out at 4.06 µM.
The compound `CCOC(=O)c1nc2c(nc1C(=O)OCC)C(=O)c1ccccc1C2=O` yielded a TGI of 0.956 µM.
Consider `C=CCSc1nnc2cc(CN3CCCC3)c(-c3ccc(Cl)cc3)nn12`, for which the TGI amounted to 27.7 µM.
Take `Cc1cn(C2CC(O)C(CO)O2)c(=O)[nH]c1=O` (stereo not given): the TGI worked out at 3680 µM.
Compound `O=c1[nH]c(Nc2nc3ccccc3[nH]2)nc(O)c1-c1ccccc1` had a TGI of more than 100 µM.
`CCOC(=O)c1cn2c(nc1=O)N[C@H]1CCCC[C@@H]12`: the TGI is more than 100 µM.
`CC1=NS(=O)(=O)c2ccccc2N1` displayed a TGI of more than 100 µM.
The compound `O=[N+]([O-])c1ccc(Oc2c(Cl)cc(S(=O)(=O)/N=C(\NO)Nc3ccc(Cl)cc3)cc2Cl)cc1` gave a TGI of 24.1 µM.
Still for that read-out and setting: the value for `COP(=O)(/C=C/c1cc(C(=O)OCc2ccccc2)n(S(=O)(=O)c2ccccc2)c1)OC` was more than 100 µM.
Still for that read-out and setting: to `CSC(=S)N/N=C(\C)c1ccc(S(=O)(=O)N(C)c2ccccc2)cc1` belongs more than 100 µM.

Another assay deals with SF-539 CNS. Briefly: NCI tumour cell line growth inhibition, 48 h.
Turning to `Cc1cc2c3c(nc4ccccc42)C(=O)c2ccccc2-c3n1`, the TGI turned out to be 61.2 µM.
Same read-out and setting: the value for `CCOC(=O)c1nc2c(nc1C(=O)OCC)C(=O)c1ccccc1C2=O` was 1.71 µM.
As to `C=CCSc1nnc2cc(CN3CCCC3)c(-c3ccc(Cl)cc3)nn12`, the TGI stood at 36.2 µM.
The same measure, in the same setting: the value for `Cc1cn(C2CC(O)C(CO)O2)c(=O)[nH]c1=O` (stereo not given) was more than 5000 µM; that for `O=c1[nH]c(Nc2nc3ccccc3[nH]2)nc(O)c1-c1ccccc1` was more than 100 µM; that for `CCOC(=O)c1cn2c(nc1=O)N[C@H]1CCCC[C@@H]12` was more than 100 µM.
For `CC1=NS(=O)(=O)c2ccccc2N1`, the TGI was more than 100 µM.
Compound `O=[N+]([O-])c1ccc(Oc2c(Cl)cc(S(=O)(=O)/N=C(\NO)Nc3ccc(Cl)cc3)cc2Cl)cc1` came in with a TGI of 26.7 µM.
For `COP(=O)(/C=C/c1cc(C(=O)OCc2ccccc2)n(S(=O)(=O)c2ccccc2)c1)OC`, the TGI is more than 100 µM.
Regarding `CSC(=S)N/N=C(\C)c1ccc(S(=O)(=O)N(C)c2ccccc2)cc1`, the TGI was more than 100 µM.

In another assay the test system is SF-268 CNS. As to the kind of experiment: NCI tumour cell line growth inhibition, 48 h.
For `Cc1cc2c3c(nc4ccccc42)C(=O)c2ccccc2-c3n1`, the TGI is more than 100 µM.
Consider `CCOC(=O)c1nc2c(nc1C(=O)OCC)C(=O)c1ccccc1C2=O`, for which the TGI stood at 7.62 µM.
`C=CCSc1nnc2cc(CN3CCCC3)c(-c3ccc(Cl)cc3)nn12` registered a TGI of 46 µM.
In turn, `Cc1cn(C2CC(O)C(CO)O2)c(=O)[nH]c1=O` (stereo not given) yielded a TGI of more than 5000 µM.
`O=c1[nH]c(Nc2nc3ccccc3[nH]2)nc(O)c1-c1ccccc1` displayed a TGI of more than 100 µM.
Take `CCOC(=O)c1cn2c(nc1=O)N[C@H]1CCCC[C@@H]12`: the TGI was more than 100 µM.
Regarding `CC1=NS(=O)(=O)c2ccccc2N1`, the TGI was more than 100 µM.
Consider `O=[N+]([O-])c1ccc(Oc2c(Cl)cc(S(=O)(=O)/N=C(\NO)Nc3ccc(Cl)cc3)cc2Cl)cc1`, for which the TGI turned out to be 35.3 µM.
On to `COP(=O)(/C=C/c1cc(C(=O)OCc2ccccc2)n(S(=O)(=O)c2ccccc2)c1)OC`, for which the TGI was more than 100 µM.
On the same count and under the same terms, to `CSC(=S)N/N=C(\C)c1ccc(S(=O)(=O)N(C)c2ccccc2)cc1` belongs more than 100 µM.

A further assay has as its system U251 CNS. Briefly: NCI tumour cell line growth inhibition, 48 h.
With `Cc1cc2c3c(nc4ccccc42)C(=O)c2ccccc2-c3n1`, the TGI is more than 100 µM.
`CCOC(=O)c1nc2c(nc1C(=O)OCC)C(=O)c1ccccc1C2=O` registered a TGI of 2.74 µM.
Still for that read-out and setting: the value for `C=CCSc1nnc2cc(CN3CCCC3)c(-c3ccc(Cl)cc3)nn12` was 31.2 µM; that for `Cc1cn(C2CC(O)C(CO)O2)c(=O)[nH]c1=O` (stereo not given) was more than 5000 µM; that for `O=c1[nH]c(Nc2nc3ccccc3[nH]2)nc(O)c1-c1ccccc1` was more than 100 µM.

Source of the values: PubChem BioAssay (NCI).
